Measurements from patent US8933103B2, “Pyridone derivatives” (Daiichi Sankyo Company, Limited, priority 2012, dated 2015).

Legend:
[1] = target: T1, phosphorylated Axl (pAxl Y702) in NCI-H1299 cells (Homo sapiens, UniProt P30530); assay: Intracellular Axl Phosphorylation Inhibitory Activity (pAxl, NCI-H1299 cells); format: cell-based; settings: 1 h compound incubation, GAS6 stimulation 10 minutes, pAxl (Y702) level
T1 construct: endogenous in cells; host or cells: NCI-H1299
T1 sequence (P30530 26-894): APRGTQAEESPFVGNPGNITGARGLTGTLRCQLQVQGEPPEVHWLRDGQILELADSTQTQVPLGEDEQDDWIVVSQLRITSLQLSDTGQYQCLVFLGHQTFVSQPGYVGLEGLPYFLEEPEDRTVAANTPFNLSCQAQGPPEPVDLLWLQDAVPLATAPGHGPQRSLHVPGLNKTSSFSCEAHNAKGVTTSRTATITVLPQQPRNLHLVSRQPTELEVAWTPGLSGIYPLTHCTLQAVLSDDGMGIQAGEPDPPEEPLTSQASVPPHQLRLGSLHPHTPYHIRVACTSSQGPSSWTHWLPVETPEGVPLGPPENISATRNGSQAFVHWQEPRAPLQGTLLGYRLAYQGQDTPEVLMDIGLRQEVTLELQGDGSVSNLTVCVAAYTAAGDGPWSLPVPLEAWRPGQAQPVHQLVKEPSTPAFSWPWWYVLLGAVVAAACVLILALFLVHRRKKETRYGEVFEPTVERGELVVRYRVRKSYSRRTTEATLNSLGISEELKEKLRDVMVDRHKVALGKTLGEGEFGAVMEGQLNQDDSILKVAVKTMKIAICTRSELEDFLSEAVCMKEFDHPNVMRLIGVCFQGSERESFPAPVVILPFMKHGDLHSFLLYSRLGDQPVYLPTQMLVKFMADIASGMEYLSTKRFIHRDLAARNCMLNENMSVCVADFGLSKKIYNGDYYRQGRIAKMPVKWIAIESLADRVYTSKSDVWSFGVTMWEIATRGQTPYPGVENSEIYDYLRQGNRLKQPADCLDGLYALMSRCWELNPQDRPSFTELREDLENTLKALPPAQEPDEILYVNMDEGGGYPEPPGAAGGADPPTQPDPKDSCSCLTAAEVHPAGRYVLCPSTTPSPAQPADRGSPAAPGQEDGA
Protocol: A phosphorylated Axl (hereinafter pAxl) inhibitory test was performed using the human non-small-cell lung cancer-derived cell strain NCI-H1299.
On the following day, the medium was removed, 100 μl of fresh medium were added, and the cells were cultured at 37° C. in the presence of 5% CO2 for one day.
The test compound was dissolved in DMSO and diluted with medium to prepare a sample solution (DMSO concentration: 2%). Twenty-five microliters of medium or sample-added medium was added to each well (DMSO concentration: 0.4%), and the plate was incubated at 37° C. in the presence of 5% CO2 for one hour.
After stirring, the plate was incubated at 37° C. in the presence of 5% CO2 for 10 minutes.
The supernatant was discarded, and 0.1 ml of a 37% formalin solution diluted to 4% with phosphate buffer (PBS) (hereinafter “4% formalin solution”) was added to each well. The plate was allowed to stand at room temperature for 10 minutes.
Next, the 4% formalin solution was discarded, and 0.2 ml of a solution of Triton X-100 diluted to 0.1% with PBS (hereinafter “wash buffer”) was added. The wash buffer was discarded using a decanter, and excess moisture in the plate was removed on a paper towel.
Subsequently, […] NaN3 and H2O2 were added to the wash buffer at 0.1% (hereinafter “quenching buffer”), and 0.1 ml of the quenching buffer was added to each well. The plate was allowed to stand at room temperature for 15 minutes.
The quenching buffer was discarded, and 0.2 ml of wash buffer was added. The wash buffer was discarded using a decanter, and excess moisture in the plate was removed on a paper towel.
Skim milk (Nacalai Tesque) was added to the wash buffer at a final concentration of 5% (hereinafter “blocking buffer”), and 0.25 ml of the blocking buffer was added to each well. The plate was allowed to stand at room temperature for one hour.
After light stirring, the plate was incubated for 20 minutes. Luminescence was then measured by ARVO sx (PerkinElmer), and the pAxl (Y702) level was measured.
pAxl Inhibitory activity was determined by the following formula. Inhibition %=100−(A−B)×100/(T−B)
A: Measurement of the test compound
T: Luminescence value of the reaction solution with a compound not added

[2] = target: T2, AXL (fusion protein of amino acids 464-885 of the intracellular domain of human AXL with glutathione transferase) (Homo sapiens, UniProt P30530); assay: Cell-Free Axl Kinase Inhibitory Activity
T2 sequence (P30530 464-885 isoform P30530-2): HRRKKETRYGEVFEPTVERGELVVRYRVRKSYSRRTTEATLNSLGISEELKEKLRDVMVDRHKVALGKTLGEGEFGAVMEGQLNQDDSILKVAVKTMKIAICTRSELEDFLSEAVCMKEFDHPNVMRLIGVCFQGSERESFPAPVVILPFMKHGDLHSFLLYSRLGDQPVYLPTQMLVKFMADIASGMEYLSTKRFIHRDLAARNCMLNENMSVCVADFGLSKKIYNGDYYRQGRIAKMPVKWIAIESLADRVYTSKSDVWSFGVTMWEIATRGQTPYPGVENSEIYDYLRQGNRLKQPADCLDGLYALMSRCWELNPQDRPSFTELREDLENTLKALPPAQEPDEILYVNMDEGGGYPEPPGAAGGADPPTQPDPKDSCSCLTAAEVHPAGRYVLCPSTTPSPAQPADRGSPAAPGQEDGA
Protocol: Next, the test compound was diluted with DMSO, and 1 μl of this diluted solution was added to each well.
Five microliters of this solution were added to each well to initiate a kinase reaction. The plate was incubated at 28° C. for 1.5 hours, and 40 μl of a termination buffer (100 mM HEPES (pH 7.4), 0.015% Brij-35, 40 mM EDTA, 0.1% Coating Reagent 3) was added to each well to terminate the reaction.
The substrate peptide and the phosphorylated peptide in the reaction solution were separated and quantified by EZ Reader II (Caliper Life Sciences).
IC50 was determined from inhibition data for 12 test compound concentrations by nonlinear regression (four-parameter logistic regression) using the following formula.

Row | SMILES | IC50 [1] [nM] | IC50 [2] [nM]
1 | COc1ccc(-c2cnc(N)c(-c3ccc(NC(=O)c4c[nH]cc(-c5ccc(F)cc5)c4=O)cc3)c2)cc1OC [Example 1, N-{4-[2-Amino-5-(3,4-dimethoxyphenyl)pyridin-3-yl]phenyl}-5-(4-fluorophenyl)-4-oxo-1,4-dihydropyridine-3-carboxamide] | 50 to 100 | 1 to 10
2 | Nc1ncc(-c2ccccc2)cc1-c1ccc(NC(=O)c2cn(CC(F)(F)F)cc(-c3ccc(F)cc3)c2=O)cc1 [Example 31, N-[4-(2-Amino-5-phenylpyridin-3-yl)phenyl]-5-(4-fluorophenyl)-4-oxo-1-(2,2,2-trifluoroethyl)-1,4-dihydropyridine-3-carboxamide] | 100 to 500 | 1 to 10
3 | COc1ccc(-c2cnc(N)c(-c3ccc(NC(=O)c4cn(CCO)cc(-c5ccc(F)cc5)c4=O)cc3)c2)cc1OC [Example 7, N-{4-[2-Amino-5-(3,4-dimethoxyphenyl)pyridin-3-yl]phenyl}-5-(4-fluorophenyl)-1-(2-hydroxyethyl)-4-oxo-1,4-dihydropyridine-3-carboxamide] | 50 to 100 | 1 to 10
4 | CN1CC=C(c2cnc(N)c(-c3ccc(NC(=O)c4cn(CC(F)(F)F)cc(-c5ccc(F)cc5)c4=O)cc3)c2)CC1 [Example 79, N-[4-(6-Amino-1′-methyl-1′,2′,3′,6′-tetrahydro-3,4′-bipyridin-5-yl)phenyl]-5-(4-fluorophenyl)-4-oxo-1-(2,2,2-trifluoroethyl)-1,4-dihydropyridine-3-carboxamide] | 50 to 100 | 1 to 10
5 | COc1ccc(-c2cnc(N)c(-c3ccc(NC(=O)c4cn(C[C@H]5COCCO5)cc(-c5ccc(F)cc5)c4=O)cc3)c2)cc1OC [Example 14, N-{4-[2-Amino-5-(3,4-dimethoxyphenyl)pyridin-3-yl]phenyl}-1-[(2S)-1,4-dioxan-2-ylmethyl]-5-(4-fluorophenyl)-4-oxo-1,4-dihydropyridine-3-carboxamide] | 50 to 100 | 1 to 10
6 | Cc1ccc(-c2cnc(N)c(-c3ccc(NC(=O)c4cn(CC(F)(F)F)cc(-c5ccc(F)cc5)c4=O)cc3)c2)cc1 [Example 35, N-{4-[2-Amino-5-(4-methylphenyl)pyridin-3-yl]phenyl}-5-(4-fluorophenyl)-4-oxo-1-(2,2,2-trifluoroethyl)-1,4-dihydropyridine-3-carboxamide] | 100 to 500 | 10 to 20
7 | Nc1ncc(-c2cccc(Cl)c2)cc1-c1ccc(NC(=O)c2cn(CC(F)(F)F)cc(-c3ccc(F)cc3)c2=O)cc1 [Example 36, N-{4-[2-Amino-5-(3-chlorophenyl)pyridin-3-yl]phenyl}-5-(4-fluorophenyl)-4-oxo-1-(2,2,2-trifluoroethyl)-1,4-dihydropyridine-3-carboxamide] | 100 to 500 | 10 to 20
8 | CCN(CC)CCn1cc(C(=O)Nc2ccc(-c3cc(-c4cnn(C[C@H]5COCCO5)c4)cnc3N)cc2)c(=O)c(-c2ccc(F)cc2)c1 [Example 69, N-[4-(2-Amino-5-{1-[(2S)-1,4-dioxan-2-ylmethyl]-1H-pyrazol-4-yl}pyridin-3-yl)phenyl]-1-[2-(diethylamino)ethyl]-5-(4-fluorophenyl)-4-oxo-1,4-dihydropyridine-3-carboxamide] | 100 to 500 | 1 to 10
9 | COc1ccc(-c2cnc(N)c(-c3ccc(NC(=O)c4cn(CC(F)(F)F)cc(-c5cccc(F)c5)c4=O)cc3)c2)cc1OC [Example 22, N-{4-[2-Amino-5-(3,4-dimethoxyphenyl)pyridin-3-yl]phenyl}-5-(3-fluorophenyl)-4-oxo-1-(2,2,2-trifluoroethyl)-1,4-dihydropyridine-3-carboxamide] | 50 to 100 | 1 to 10
10 | COc1ccnc(N)c1-c1ccc(NC(=O)c2cn(Cc3ccc(F)cc3)cc(C(=O)N3CCCC3)c2=O)cc1 [Example 84, N-[4-(2-Amino-4-methoxypyridin-3-yl)phenyl]-1-(4-fluorobenzyl)-4-oxo-5-(pyrrolidin-1-ylcarbonyl)-1,4-dihydropyridine-3-carboxamide] | 100 to 500 | 10 to 20
11 | COc1ccc(-c2cnc(N)c(-c3ccc(NC(=O)c4cn(CC(F)(F)F)cc(-c5ccc(F)cc5)c4=O)cc3C)c2)cc1OC [Example 30, N-{4-[2-Amino-5-(3,4-dimethoxyphenyl)pyridin-3-yl]-3-methylphenyl}-5-(4-fluorophenyl)-4-oxo-1-(2,2,2-trifluoroethyl)-1,4-dihydropyridine-3-carboxamide] | 50 to 100 | 1 to 10
12 | COc1ccc(-c2cnc(N)c(-c3ccc(NC(=O)c4cn(CCOC5CCCCO5)cc(-c5ccc(F)cc5)c4=O)cc3)c2)cc1OC (racemic) [Example 6, N-{4-[2-Amino-5-(3,4-dimethoxyphenyl)pyridin-3-yl]phenyl}-5-(4-fluorophenyl)-4-oxo-1-[2-(tetrahydro-2H-pyran-2-yloxy)ethyl]-1,4-dihydropyridine-3-carboxamide] | 100 to 500 | 1 to 10
13 | CC(C)(O)Cn1cc(C(=O)Nc2ccc(-c3cc(-c4cnn(C[C@H]5COCCO5)c4)cnc3N)cc2)c(=O)c(-c2ccc(F)cc2)c1 [Example 68, N-[4-(2-Amino-5-{1-[(2S)-1,4-dioxan-2-ylmethyl]-1H-pyrazol-4-yl}pyridin-3-yl)phenyl]-5-(4-fluorophenyl)-1-(2-hydroxy-2-methylpropyl)-4-oxo-1,4-dihydropyridine-3-carboxamide] | 100 to 500 | 10 to 20
14 | CCn1cc(C(=O)Nc2ccc(-c3cc(-c4ccc(OC)c(OC)c4)cnc3N)cc2)c(=O)c(-c2ccccc2)c1 [Example 18, N-{4-[2-Amino-5-(3,4-dimethoxyphenyl)pyridin-3-yl]phenyl}-1-ethyl-4-oxo-5-phenyl-1,4-dihydropyridine-3-carboxamide] | 50 to 100 | 1 to 10
15 | COC1CN(C(=O)c2cn(Cc3ccc(F)cc3)cc(C(=O)Nc3ccc(-c4cc(-c5cnn(C[C@H]6COCCO6)c5)cnc4N)cc3)c2=O)C1 [Example 72, N-[4-(2-Amino-5-{1-[(2S)-1,4-dioxan-2-ylmethyl]-1H-pyrazol-4-yl}pyridin-3-yl)phenyl]-1-(4-fluorobenzyl)-5-[(3-methoxyazetidin-1-yl)carbonyl]-4-oxo-1,4-dihydropyridine-3-carboxamide] | 50 to 100 | 1 to 10
16 | COc1cccc(-c2cnc(N)c(-c3ccc(NC(=O)c4cn(CC(F)(F)F)cc(-c5ccc(F)cc5)c4=O)cc3)c2)c1 [Example 33, N-{4-[2-Amino-5-(3-methoxyphenyl)pyridin-3-yl]phenyl}-5-(4-fluorophenyl)-4-oxo-1-(2,2,2-trifluoroethyl)-1,4-dihydropyridine-3-carboxamide] | 50 to 100 | 1 to 10
